Results taken from US4482565A, “β-Lactam-containing antibacterial agents and β-lactamase inhibitors” (Farmitalia Carlo Erba S.p.A., priority 1981, dated 1984).
Converted amounts (≈) assume the structure as drawn. Like-named read-outs stand apart in the source and are kept apart here.

Experiments:
Assay type in all cases: cell-based
[1] = tested on: Staphylococcus aureus Smith; experiment: in vitro antibacterial activity (MIC); details: collection strain, read-out: MIC (minimal inhibitory concentration)
[2] = tested on: Klebsiella pneumoniae ATCC 10031; experiment: in vitro antibacterial activity (MIC), second listing of the strain; details: ATCC10031, collection strain (second listing), read-out: MIC (minimal inhibitory concentration)
Salmonella typhimurium [3] = experiment: in vitro antibacterial activity (MIC), collection strain; details: Salmonella enterica; in vitro; Salmonella Typhimurium; collection strain (second listing); read-out: MIC (minimal inhibitory concentration)
[4] = tested on: Enterobacter cloacae P 99; experiment: in vitro antibacterial activity (MIC); details: P99, read-out: MIC (minimal inhibitory concentration)
Proteus mirabilis = experiment: in vitro antibacterial activity (MIC), collection strain; details: in vitro, collection strain, read-out: MIC (minimal inhibitory concentration)
[5] = tested on: Klebsiella aerogenes ATCC 1082 E; experiment: in vitro antibacterial activity (MIC); details: ATCC1082; in vitro; Klebsiella aerogenes ATCC 1082 E; lactamase producer; read-out: MIC (minimal inhibitory concentration)
Escherichia coli R 997 = experiment: in vitro antibacterial activity (MIC); details: R997, read-out: MIC (minimal inhibitory concentration)
[6] = tested on: Staphylococcus aureus 209P; experiment: in vitro antibacterial activity (MIC); details: collection strain, read-out: MIC (minimal inhibitory concentration)
[7] = tested on: Pseudomonas aeruginosa ATCC 2598; experiment: in vitro antibacterial activity (MIC); details: ATCC2598, collection strain, read-out: MIC (minimal inhibitory concentration)
Pseudomonas aeruginosa = experiment: in vitro antibacterial activity (MIC); details: read-out: MIC (minimal inhibitory concentration)
Escherichia coli R 46 = experiment: in vitro antibacterial activity (MIC); details: R46; in vitro; Escherichia coli R 46; lactamase producer; read-out: MIC (minimal inhibitory concentration)
Escherichia coli B Cef R = experiment: in vitro antibacterial activity (MIC); details: read-out: MIC (minimal inhibitory concentration)
Salmonella typhimurium [8] = experiment: in vitro antibacterial activity (MIC); details: Salmonella enterica, Salmonella typhimurium (first listing), read-out: MIC (minimal inhibitory concentration)
Escherichia coli R 6 K = experiment: in vitro antibacterial activity (MIC); details: R6K, read-out: MIC (minimal inhibitory concentration)
[9] = tested on: Pseudomonas aeruginosa FI; experiment: in vitro antibacterial activity (MIC); details: collection strain, read-out: MIC (minimal inhibitory concentration)
Escherichia coli R 57 B = experiment: in vitro antibacterial activity (MIC); details: R57B; in vitro; Escherichia coli R 57 B; lactamase producer; read-out: MIC (minimal inhibitory concentration)
Enterobacter cloacae 214 = experiment: in vitro antibacterial activity (MIC); details: lactamase producer, read-out: MIC (minimal inhibitory concentration)
[10] = tested on: Staphylococcus aureus 153; experiment: in vitro antibacterial activity (MIC); details: lactamase producer, read-out: MIC (minimal inhibitory concentration)
Escherichia coli RP 1 = experiment: in vitro antibacterial activity (MIC); details: RP1, read-out: MIC (minimal inhibitory concentration)
Streptococcus pyogenes = experiment: in vitro antibacterial activity (MIC); details: in vitro, read-out: MIC (minimal inhibitory concentration)
Escherichia coli RGN 238 = experiment: in vitro antibacterial activity (MIC); details: RGN238, lactamase producer, read-out: MIC (minimal inhibitory concentration)
Escherichia coli B = experiment: in vitro antibacterial activity (MIC); details: in vitro; Escherichia coli B; collection strain; read-out: MIC (minimal inhibitory concentration)
Escherichia coli P 453 = experiment: in vitro antibacterial activity (MIC); details: P453; in vitro; Escherichia coli P 453; lactamase producer; read-out: MIC (minimal inhibitory concentration)
[11] = tested on: Salmonella abortivoequina; experiment: in vitro antibacterial activity (MIC); details: collection strain, read-out: MIC (minimal inhibitory concentration)
Salmonella derby F14 = experiment: in vitro antibacterial activity (MIC); details: Salmonella enterica, read-out: MIC (minimal inhibitory concentration)
[12] = tested on: Staphylococcus aureus PV2; experiment: in vitro antibacterial activity (MIC); details: read-out: MIC (minimal inhibitory concentration)
[13] = tested on: Salmonella Saint Paul F20; experiment: in vitro antibacterial activity (MIC); details: read-out: MIC (minimal inhibitory concentration)
Salmonella panamae F15 = experiment: in vitro antibacterial activity (MIC); details: in vitro; Salmonella panamae F15; read-out: MIC (minimal inhibitory concentration)
Shigella flexneri = experiment: in vitro antibacterial activity (MIC); details: read-out: MIC (minimal inhibitory concentration)
Description: A series of tests was carried out in vitro to compare the activities of (5R)-acetoxymethyl-2-acetoxymethyl-2-penum-3-carboxylate (Laboratory code FCE/20077/B40/341), (5R) acetoxymethyl-2-[(1-methyl-1H-tetrazol-5-yl)-thiomethyl]-2-penem-3-carboxylate (compound A), three reference compounds (ampicillin, cefoxitin, and thienamycin), and compound 387, which is (5R)-2-acetoxymethyl-6-(1-hydroxyethyl)-2-penem-3-carboxylic acid. The acetoxymethoxy ester of compound 387 is prepared in Example 51 and the sodium salt of the acid is prepared in Example 98 infra. Table 1 below reports the results of the above assays as MIC (minimal inhibitory concentration).

Enterobacter sp V19 = experiment: in vitro antibacterial activity (MIC); details: read-out: MIC (minimal inhibitory concentration)
Proteus mirabilis V15 = experiment: in vitro antibacterial activity (MIC); details: read-out: MIC (minimal inhibitory concentration)
Escherichia coli V23 = experiment: in vitro antibacterial activity (MIC); details: read-out: MIC (minimal inhibitory concentration)
[14] = tested on: Salmonella montevideo F16; experiment: in vitro antibacterial activity (MIC); details: Salmonella enterica, read-out: MIC (minimal inhibitory concentration)
Klebsiella sp. R2 = experiment: in vitro antibacterial activity (MIC); details: read-out: MIC (minimal inhibitory concentration)
Proteus vulgaris V15 = experiment: in vitro antibacterial activity (MIC); details: read-out: MIC (minimal inhibitory concentration)
Proteus mirabilis 525 = experiment: in vitro antibacterial activity (MIC); details: in vitro; Proteus mirabilis 525; read-out: MIC (minimal inhibitory concentration)
Escherichia coli V14 = experiment: in vitro antibacterial activity (MIC); details: read-out: MIC (minimal inhibitory concentration)

CC(=O)OCC1=C(C(=O)O)N2C(=O)C(C(C)O)[C@H]2S1 (stereo partly drawn) [Example 387, (5R)-2-acetoxymethyl-6-(1-hydroxyethyl)-2-penem-3-carboxylic acid]
MIC [1]: 0.045 µg/mL (≈ 0.157 µM)
MIC [2]: 0.78 µg/mL (≈ 2.71 µM)
MIC (Salmonella typhimurium [3]): 0.39 µg/mL (≈ 1.36 µM)
MIC [4]: 3.12 µg/mL (≈ 10.9 µM)
MIC (Proteus mirabilis): 0.39 µg/mL (≈ 1.36 µM)
MIC [5]: 1.56 µg/mL (≈ 5.43 µM)
MIC (Escherichia coli R 997): 0.78 µg/mL (≈ 2.71 µM)
MIC [6]: 0.095 µg/mL (≈ 0.331 µM)
MIC [7]: > 25 µg/mL
MIC (Pseudomonas aeruginosa; in vitro): 1.56 µg/mL (≈ 5.43 µM)
MIC (Escherichia coli R 46): 0.78 µg/mL (≈ 2.71 µM)
MIC (Escherichia coli B Cef R): 25 µg/mL (≈ 87 µM)
MIC (Salmonella typhimurium [8]): 0.39 µg/mL (≈ 1.36 µM)
MIC (Escherichia coli R 6 K): 0.78 µg/mL (≈ 2.71 µM)
MIC [9]: 1.56 µg/mL (≈ 5.43 µM)
MIC (Escherichia coli R 57 B): 0.78 µg/mL (≈ 2.71 µM)
MIC (Enterobacter cloacae 214): 12.5 µg/mL (≈ 43.5 µM)
MIC [10]: 0.045 µg/mL (≈ 0.157 µM)
MIC (Escherichia coli RP 1): 0.39 µg/mL (≈ 1.36 µM)
MIC (Streptococcus pyogenes): 0.19 µg/mL (≈ 0.661 µM)
MIC (Escherichia coli RGN 238): 0.78 µg/mL (≈ 2.71 µM)
MIC (Escherichia coli B): 0.78 µg/mL (≈ 2.71 µM)
MIC (Escherichia coli P 453): 0.78 µg/mL (≈ 2.71 µM)
MIC [11]: 0.19 µg/mL (≈ 0.661 µM)

CC(=O)OCOC(=O)C1=C(COC(C)=O)S[C@@H]2CC(=O)N12 [FCE/20077/B40/341, (5R)-Acetoxymethyl-2-acetoxymethyl-2-penem-3-carboxylate]
MIC [1]: ≤ 0.19 µg/mL
MIC (Salmonella derby F14): 3.12 µg/mL (≈ 9.9 µM)
MIC [12]: 0.39 µg/mL (≈ 1.24 µM)
MIC [13]: 1.56 µg/mL (≈ 4.95 µM)
MIC [6]: 0.39 µg/mL (≈ 1.24 µM)
MIC (Salmonella panamae F15): 1.56 µg/mL (≈ 4.95 µM)
MIC (Pseudomonas aeruginosa; in vitro): 3.12 µg/mL (≈ 9.9 µM)
MIC (Shigella flexneri): 0.39 µg/mL (≈ 1.24 µM)
MIC (Salmonella typhimurium [8]): 1.56 µg/mL (≈ 4.95 µM)
MIC (Enterobacter sp V19): 12.5 µg/mL (≈ 39.6 µM)
MIC [10]: 1.56 µg/mL (≈ 4.95 µM)
MIC (Proteus mirabilis V15): 0.39 µg/mL (≈ 1.24 µM)
MIC (Streptococcus pyogenes): 3.12 µg/mL (≈ 9.9 µM)
MIC (Escherichia coli V23): 3.12 µg/mL (≈ 9.9 µM)
MIC [14]: 3.12 µg/mL (≈ 9.9 µM)
MIC (Escherichia coli B): 1.56 µg/mL (≈ 4.95 µM)
MIC (Klebsiella sp. R2): 25 µg/mL (≈ 79.3 µM)
MIC (Proteus vulgaris V15): 3.12 µg/mL (≈ 9.9 µM)
MIC (Proteus mirabilis 525): 3.12 µg/mL (≈ 9.9 µM)
MIC (Escherichia coli V14): 1.56 µg/mL (≈ 4.95 µM)

C[C@@H](O)[C@H]1C(=O)N2C(C(=O)O)=C(SCCN)C[C@H]12 [Thienamycin]
MIC [2]: 1.56 µg/mL (≈ 5.73 µM)
MIC [5]: 1.56 µg/mL (≈ 5.73 µM)
MIC (Escherichia coli R 997): 0.36 µg/mL (≈ 1.32 µM)
MIC [6]: ≤ 0.39 µg/mL
MIC (Pseudomonas aeruginosa): 12.5 µg/mL (≈ 45.9 µM)
MIC (Escherichia coli B Cef R): 12.5 µg/mL (≈ 45.9 µM)
MIC (Escherichia coli R 6 K): 0.78 µg/mL (≈ 2.86 µM)
MIC [9]: 12.5 µg/mL (≈ 45.9 µM)
MIC (Escherichia coli RP 1): 0.36 µg/mL (≈ 1.32 µM)
MIC (Escherichia coli RGN 238): 0.36 µg/mL (≈ 1.32 µM)
MIC (Escherichia coli B): 0.78 µg/mL (≈ 2.86 µM)
MIC (Escherichia coli P 453): 0.78 µg/mL (≈ 2.86 µM)
